From the Kinase Knowledgebase extract (Sharma et al. 2016)

Legend:
[1] = target: MAPK14 (human) (UniProt Q16539); assay: Inhibition of MAPK14 Kinase Activity
[2] = target: MAPK14 (human) (UniProt Q16539); assay: Inhibition of MAPK14 Kinase Activity by Fluorescence Anisotropy Kinase Binding Assay

MAPK14 (human), sequence (Q16539 whole entry, looked up): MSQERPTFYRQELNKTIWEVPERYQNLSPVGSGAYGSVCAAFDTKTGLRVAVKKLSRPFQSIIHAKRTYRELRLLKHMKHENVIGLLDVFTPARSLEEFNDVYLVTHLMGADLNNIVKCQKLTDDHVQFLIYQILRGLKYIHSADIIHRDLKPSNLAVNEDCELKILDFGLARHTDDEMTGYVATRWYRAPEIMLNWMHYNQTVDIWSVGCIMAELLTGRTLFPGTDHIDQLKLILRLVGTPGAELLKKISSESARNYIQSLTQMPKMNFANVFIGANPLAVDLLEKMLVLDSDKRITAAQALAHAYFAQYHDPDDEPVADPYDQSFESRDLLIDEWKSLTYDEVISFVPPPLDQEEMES

IC50 [1] | IC50 [2] | Structure (SMILES)
< 10000 nM | < 1000 nM | O=c1ccc2c(-c3ccc(F)cc3F)nc(NC(CO)CO)nc2n1-c1ccc(F)cc1F
 | < 1000 nM | C[C@@H](CO)Nc1nc(-c2ccc(F)cc2F)c2ccc(=O)n(-c3ccc(F)cc3)c2n1
< 10000 nM | < 1000 nM | O=c1ccc2c(-c3ccccc3F)nc(NC(CO)CO)nc2n1-c1c(F)cc(F)cc1F
 | < 1000 nM | O=c1ccc2c(-c3ccc(F)cc3F)nc(NC(CO)CO)nc2n1-c1cccc(F)c1F
 | < 1000 nM | O=c1ccc2c(-c3ccc(F)cc3)nc(NC(CO)CO)nc2n1-c1c(F)cc(F)cc1F
< 10000 nM | < 1000 nM | O=c1ccc2c(-c3ccc(F)cc3F)nc(NC(CO)CO)nc2n1-c1c(F)cc(F)cc1F
 | < 1000 nM | O=c1ccc2c(-c3ccc(F)cc3Cl)nc(NC(CO)CO)nc2n1-c1ccc(F)cc1F
